Measurements taken from US7763627B2, “Tie-2 modulators and methods of use” (Exelixis, Inc., priority 2003, dated 2010).

Molecular target: Tie-2 (Homo sapiens, UniProt Q02763)
Assay: Tie-2 tyrosine kinase inhibition (ATP consumption by luciferase/luciferin chemiluminescence or 33P-ATP incorporation into pEY substrate)
Type: biochemical
Conditions: human enzyme Tie-2; inhibition given as class symbol
Experimental: Tyrosine kinase activity is determined by 1) measurement of kinase-dependent ATP consumption by in the presence of a generic substrate such as polyglutamine, tyrosin (pEY), by luciferase/luciferin-mediated chemiluminescence or; 2) incorporation of radioactive phosphate derived from ^33P-ATP into a generic substrate which has been adsorbed onto the well surface of polystyrene microtiter plates. Phosphorylated substrate products are quantified by scintillation spectrometry.
Inhibition is indicated as IC50 with following key: A=IC50 less than 50 nM, B=IC50 greater than 50 nM, but less than or equal to 1000 nM, C=IC50 greater than 1000 nM, but less than 10,000 nM, and D=IC50 10,000 nM or greater. The abbreviation for human enzyme, Tie-2, is defined as tyrosine kinase with immunoglobulin and EGF repeats.

Tie-2, sequence (Q02763 23-1124): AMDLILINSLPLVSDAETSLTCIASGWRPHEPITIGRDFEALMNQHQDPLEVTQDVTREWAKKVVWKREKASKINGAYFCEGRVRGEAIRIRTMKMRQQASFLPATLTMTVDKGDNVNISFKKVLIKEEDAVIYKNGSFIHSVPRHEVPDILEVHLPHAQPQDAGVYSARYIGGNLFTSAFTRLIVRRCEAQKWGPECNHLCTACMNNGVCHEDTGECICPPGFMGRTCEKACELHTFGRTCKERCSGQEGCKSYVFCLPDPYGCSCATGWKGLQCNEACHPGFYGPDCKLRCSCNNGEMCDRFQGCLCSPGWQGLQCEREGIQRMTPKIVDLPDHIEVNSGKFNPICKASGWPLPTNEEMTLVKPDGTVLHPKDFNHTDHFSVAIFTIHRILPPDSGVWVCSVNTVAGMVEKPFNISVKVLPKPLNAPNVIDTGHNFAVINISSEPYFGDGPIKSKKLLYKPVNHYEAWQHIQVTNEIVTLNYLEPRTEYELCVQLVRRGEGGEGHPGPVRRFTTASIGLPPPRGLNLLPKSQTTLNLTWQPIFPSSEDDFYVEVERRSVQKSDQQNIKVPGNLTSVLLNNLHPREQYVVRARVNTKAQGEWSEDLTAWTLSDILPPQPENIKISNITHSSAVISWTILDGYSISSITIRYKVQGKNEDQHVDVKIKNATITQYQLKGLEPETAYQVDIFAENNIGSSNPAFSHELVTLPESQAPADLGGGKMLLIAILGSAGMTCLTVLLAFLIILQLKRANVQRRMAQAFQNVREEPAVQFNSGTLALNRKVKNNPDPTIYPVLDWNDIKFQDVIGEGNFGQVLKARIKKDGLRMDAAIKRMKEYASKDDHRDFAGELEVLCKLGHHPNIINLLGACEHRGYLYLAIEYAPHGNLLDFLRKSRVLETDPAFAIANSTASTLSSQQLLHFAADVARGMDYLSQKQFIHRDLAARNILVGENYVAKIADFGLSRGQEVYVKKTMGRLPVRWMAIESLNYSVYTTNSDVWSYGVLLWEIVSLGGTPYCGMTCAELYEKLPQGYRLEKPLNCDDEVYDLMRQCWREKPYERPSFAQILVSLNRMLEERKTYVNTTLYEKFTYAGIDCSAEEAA

Row | Compound | IC50
1 | O[C@@H]1Cc2ccccc2[C@@H]1Nc1nc(-c2ccccc2)nc2ccccc12 [Compound 26, (1S,2R)-1-[(2-phenylquinazolin-4-yl)amino]-2,3-dihydro-1H-inden-2-ol] | ≥ 10 µM
2 | CN(C)CCNc1nc(-c2ccncc2)nc2ccccc12 [Compound 8, N,N-dimethyl-N′-(2-pyridin-4-ylquinazolin-4-yl)ethane-1,2-diamine] | ≥ 10 µM
3 | COc1cc(OC)c(CNc2nc(-c3ccncc3)nc3ccccc23)c(OC)c1 [Compound 20, 2-pyridin-4-yl-N-{[2,4,6-tris(methyloxy)phenyl]methyl}quinazolin-4-amine] | ≥ 10 µM
4 | c1ccc2c(NC3CCNCC3)nc(-c3ccncc3)nc2c1 [Compound 21, N-piperidin-4-yl-2-pyridin-4-ylquinazolin-4-amine] | ≥ 10 µM
5 | O[C@H]1Cc2ccccc2[C@H]1Nc1nc(-c2ccccc2)nc2ccccc12 [Compound 27, (1R,2S)-1-[(2-phenylquinazolin-4-yl)amino]-2,3-dihydro-1H-inden-2-ol] | ≥ 10 µM
6 | O[C@@H]1Cc2ccccc2[C@@H]1Nc1nc(-c2cccnc2)nc2ccccc12 [Compound 33, (1S,2R)-1-[(2-pyridin-3-ylquinazolin-4-yl)amino]-2,3-dihydro-1H-inden-2-ol] | 1 to 10 µM
7 | c1ccc2c(c1)CCC2Nc1nc(-c2ccncc2)nc2ccccc12 (stereo not drawn) [Compound 9, N-(2,3-dihydro-1H-inden-1-yl)-2-pyridin-4-ylquinazolin-4-amine] | 0.05 to 1 µM
8 | c1ccc2c(c1)CC[C@@H](Nc1nc(-c3ccncc3)nc3ccccc13)C2 [Compound 12, 2-pyridin-4-yl-N-[(2R)-1,2,3,4-tetrahydronaphthalen-2-yl]quinazolin-4-amine] | 0.05 to 1 µM
9 | Oc1cc2ccccc2cc1Nc1nc(-c2ccncc2)nc2ccccc12 [Compound 24, 3-[(2-pyridin-4-ylquinazolin-4-yl)amino]naphthalen-2-ol] | 1 to 10 µM

Second part, the compound after the results:

Row | IC50 | Compound
10 | ≥ 10 µM | OC1CCCN(c2nc(-c3ccncc3)nc3ccccc23)C1 (stereo not drawn) [Compound 47, 1-(2-pyridin-4-ylquinazolin-4-yl)piperidin-3-ol]
11 | ≥ 10 µM | C[C@H](CO)Nc1nc(-c2ccncc2)nc2ccccc12 [Compound 41, (2R)-2-[(2-pyridin-4-ylquinazolin-4-yl)amino]propan-1-ol]
12 | ≥ 10 µM | Nc1ccncc1-c1nc(N[C@H]2c3ccccc3C[C@H]2O)c2ccccc2n1 [Compound 59, (1S,2R)-1-{[2-(4-aminopyridin-3-yl)quinazolin-4-yl]amino}-2,3-dihydro-1H-inden-2-ol]
13 | ≥ 10 µM | C[C@H](O)CNc1nc(-c2ccncc2)nc2ccccc12 [Compound 42, (2S)-1-[(2-pyridin-4-ylquinazolin-4-yl)amino]propan-2-ol]
14 | 0.05 to 1 µM | COc1cc2nc(-c3ccncc3)nc(N[C@H]3c4ccccc4C[C@H]3O)c2cc1OC [Compound 46, (1S,2R)-1-{[6,7-bis(methyloxy)-2-pyridin-4-ylquinazolin-4-yl]amino}-2,3-dihydro-1H-inden-2-ol]
15 | 0.05 to 1 µM | O[C@@H]1Cc2ccccc2[C@@H]1Nc1nc(-c2ccncc2)nc2cc(C(F)(F)F)ccc12 [Compound 48, (1S,2R)-1-{[2-pyridin-4-yl-7-(trifluoromethyl)quinazolin-4-yl]amino}-2,3-dihydro-1H-inden-2-ol]
